Measured values reported in patent US12514251B2, “Fused heterocyclic compounds and their use as pest control agents” (priority 2020, dated 2026).

Key:
Helicoverpa armigera = test: Helicoverpa armigera, diet incorporation method; assay type: in vivo; conditions: third instar larvae, 96 h after release, dead + moribund vs untreated control, read-out: percent mortality
Procedure: The diet incorporation method was used, in which the required quantity of the test compound was weighed and dissolved in a tube containing solvent solution. The tube was put on a vortex at 2000 rpm for 90 min for proper mixing. Semi-synthetic diet was incorporated into this solution when the temperature was approximately 50° C. in the bioassay containers. Compound and diet were stirred thoroughly for proper mixing and allowed to cool for 30 min. The solidified diet was cut into equal pieces, and then each piece was transferred into one cell of a bio-assay tray. A single starved third instar larva was released into each of the cells of the bioassay trays and the tray was covered with a lid. The bio-assay trays were then kept under laboratory conditions at a temperature of 25° C. and a relative humidity of 70%. Observations on dead, moribund and alive larvae were recorded 96 h after the release of the larvae. Percent mortality was calculated by combining dead and moribund larvae and comparing the result to the one of the untreated control.

Plutella xylostella = test: Plutella xylostella, leaf dip method; assay type: in vivo; conditions: foliar, cabbage leaf dip, second instar larvae, 72 h after release, dead + moribund vs untreated control, read-out: percent mortality
Procedure: The leaf dip method was used for testing, wherein the required quantity of the compound was weighed and dissolved in a tube containing solvent solution. The tube was put on a vortex at 2000 rpm for 90 min for proper mixing, then diluted with 0.01% Triton-X solution to get the desired test concentration. Cabbage leaves were dipped in the compound solution for 10 seconds, shade dried for 20 min and then transferred into the cells of bioassay trays. A single second instar larva was released into each cell and the tray was covered with a lid. The bio-assay trays were then kept under laboratory conditions at a temperature of 25° C. and a relative humidity of 70%. Observations on dead, moribund and alive larvae were recorded 72 h after the release. Percent mortality was calculated by combining dead and moribund larvae and comparing the result to the one of the untreated control.

Row | Structure (SMILES) | mortality at 300 ppm (Helicoverpa armigera) [%] | mortality at 300 ppm (Plutella xylostella) [%]
1 | CCS(=O)(=O)c1cc(-c2ccn3nc(C(F)(F)F)cc3n2)cnc1-n1nc2ccc(C(F)(F)F)cn2c1=O [Compound 75, 2-(3-(ethylsulfonyl)-5-(2-(trifluoromethyl)pyrazolo[1,5-a]pyrimidin-5-yl)pyridin-2-yl)-6-(trifluoromethyl)-[1,2,4]triazolo[4,3-a]pyridin-3(2H)-one] | ≥ 70 | ≥ 70
2 | CCS(=O)(=O)c1ccc(-n2ccc(C(F)(F)F)n2)nc1-c1ccn2nc(C(F)(F)F)cc2n1 [Compound 34, 5-(3-(ethylsulfonyl)-6-(3-(trifluoromethyl)-1H-pyrazol-1-yl)pyridin-2-yl)-2-(trifluoromethyl)pyrazolo[1,5-a]pyrimidine] | ≥ 70 | ≥ 70
3 | CCS(=O)(=O)c1cc(OC(F)F)cnc1-c1ccn2nc(C(F)(F)F)cc2n1 [Compound 229, 5-(5-(difluoromethoxy)-3-(ethylsulfonyl)pyridin-2-yl)-2-(trifluoromethyl)pyrazolo[1,5-a]pyrimidine] | ≥ 70 | ≥ 70
4 | CCS(=O)(=O)c1ccc(-n2ncn(-c3ccc(Cl)cc3)c2=O)nc1-c1ccn2nc(C(F)(F)F)cc2n1 [Compound 7, 4-(4-chlorophenyl)-2-(5-(ethylsulfonyl)-6-(2-(trifluoromethyl)pyrazolo[1,5-a]pyrimidin-5-yl)pyridin-2-yl)-2,4-dihydro-3H-1,2,4-triazol-3-one] | ≥ 70 | ≥ 70
5 | CCS(=O)(=O)c1ccc(-n2cncn2)nc1-c1ccn2nc(C(F)(F)F)cc2n1 [Compound 3, 5-(3-(ethylsulfonyl)-6-(1H-1,2,4-triazol-1-yl)pyridin-2-yl)-2-(trifluoromethyl)pyrazolo[1,5-a]pyrimidine] |  | ≥ 70
6 | CCS(=O)(=O)c1ccc(C)nc1-c1ccn2nc(C(F)(F)F)nc2n1 [Compound 183, 5-(3-(ethylsulfonyl)-6-methylpyridin-2-yl)-2-(trifluoromethyl)-[1,2,4]triazolo[1,5-a]pyrimidine] |  | ≥ 70
7 | CCS(=O)(=O)c1ccc(C2CC2)nc1-c1ccn2nc(C(F)(F)F)cc2n1 [Compound 171, 5-(6-cyclopropyl-3-(ethylsulfonyl)pyridin-2-yl)-2-(trifluoromethyl)pyrazolo[1,5-a]pyrimidine] |  | ≥ 70
8 | CCS(=O)(=O)c1cc(-c2ccn3nc(C(F)(F)F)cc3n2)cnc1-n1cncn1 [Compound 31, 5-(5-(ethylsulfonyl)-6-(1H-1,2,4-triazol-1-yl)pyridin-3-yl)-2-(trifluoromethyl)pyrazolo[1,5-a]pyrimidine] |  | ≥ 70
9 | CCS(=O)(=O)c1cc(NC2CC2)cnc1-c1ccn2nc(C(F)(F)F)cc2n1 [Compound 170, N-cyclopropyl-5-(ethylsulfonyl)-6-(2-(trifluoromethyl)pyrazolo[1,5-a]pyrimidin-5-yl)pyridin-3-amine] |  | ≥ 70
10 | CCS(=O)(=O)c1cc(-n2cc(Cl)cn2)cnc1-c1ccn2nc(C(F)(F)F)cc2n1 [Compound 89] |  | ≥ 70
11 | CCS(=O)(=O)c1cc(NC(=O)C2CC2)cnc1-c1ccn2nc(C(F)(F)F)cc2n1 [Compound 233, N-(5-(ethylsulfonyl)-6-(2-(trifluoromethyl)pyrazolo[1,5-a]pyrimidin-5-yl)pyridin-3-yl)cyclopropanecarboxamide] |  | ≥ 70
12 | CCS(=O)(=O)c1ccc(-c2ccc(C#N)cc2)nc1-c1ccn2nc(C(F)(F)F)cc2n1 [Compound 18, 4-(5-(ethylsulfonyl)-6-(2-(trifluoromethyl)pyrazolo[1,5-a]pyrimidin-5-yl)pyridin-2-yl)benzonitrile] |  | ≥ 70
13 | CCS(=O)(=O)c1cc(-c2cnn(C)c2)cnc1-c1ccn2nc(C(F)(F)F)cc2n1 [Compound 97, 5-(3-(ethylsulfonyl)-5-(1-methyl-1H-pyrazol-4-yl)pyridin-2-yl)-2-(trifluoromethyl)pyrazolo[1,5-a]pyrimidine] |  | ≥ 70
14 | CCS(=O)(=O)c1cc(-n2cc(F)cn2)cnc1-c1ccn2nc(C(F)(F)F)cc2n1 [Compound 70, 5-(3-(ethylsulfonyl)-5-(4-fluoro-1H-pyrazol-1-yl)pyridin-2-yl)-2-(trifluoromethyl)pyrazolo[1,5-a]pyrimidine] | ≥ 70 | ≥ 70
15 | CCS(=O)(=O)c1ccc(C=C(C)C)nc1-c1ccn2nc(C(F)(F)F)cc2n1 [Compound 210, 5-(3-(ethylsulfonyl)-6-(2-methylprop-1-en-1-yl)pyridin-2-yl)-2-(trifluoromethyl)pyrazolo[1,5-a]pyrimidine] |  | ≥ 70
16 | CCS(=O)(=O)c1cc(-c2cncnc2)cnc1-c1ccn2nc(C(F)(F)F)nc2n1 [Compound 135, 5-(3-(ethylsulfonyl)-5-(pyrimidin-5-yl)pyridin-2-yl)-2-(trifluoromethyl)-[1,2,4]triazolo[1,5-a]pyrimidine] |  | ≥ 70
17 | CCS(=O)(=O)c1cc(NC(=O)OC(C)(C)C)cnc1-c1ccn2nc(C(F)(F)F)cc2n1 [Compound 222, tert-butyl (5-(ethylsulfonyl)-6-(2-(trifluoromethyl)pyrazolo[1,5-a]pyrimidin-5-yl)pyridin-3-yl)carbamate] |  | ≥ 70
18 | CCS(=O)(=O)c1cc(-c2ccc(OC(F)(F)F)cc2)cnc1-c1ncc2nc(C(F)(F)F)n(C)c2n1 [Compound 119, 2-(3-(ethylsulfonyl)-5-(4-(trifluoromethoxy)phenyl)pyridin-2-yl)-9-methyl-8-(trifluoromethyl)-9H-purine] |  | ≥ 70
19 | CCS(=O)(=O)c1ccc(O)nc1-c1ccn2nc(C(F)(F)F)cc2n1 [Compound 236, 5-(ethylsulfonyl)-6-(2-(trifluoromethyl)pyrazolo[1,5-a]pyrimidin-5-yl)pyridin-2-ol] |  | ≥ 70
20 | CCS(=O)(=O)c1ccc(-c2ccccc2)nc1-c1ccn2nc(C(F)(F)F)cc2n1 [Compound 15, 5-(3-(ethylsulfonyl)-6-phenylpyridin-2-yl)-2-(trifluoromethyl)pyrazolo[1,5-a]pyrimidine] |  | ≥ 70
21 | CCS(=O)(=O)c1ccc(-c2cccc(C#N)c2)nc1-c1ccn2nc(C(F)(F)F)cc2n1 [Compound 23, 3-(5-(ethylsulfonyl)-6-(2-(trifluoromethyl)pyrazolo[1,5-a]pyrimidin-5-yl)pyridin-2-yl)benzonitrile] |  | ≥ 70
22 | CCS(=O)(=O)c1cc(-c2cc(F)cc(Cl)c2)cnc1-c1ncc2nc(C(F)(F)F)n(C)c2n1 [Compound 131, 2-(5-(3-chloro-5-fluorophenyl)-3-(ethylsulfonyl)pyridin-2-yl)-9-methyl-8-(trifluoromethyl)-9H-purine] |  | ≥ 70
23 | CCS(=O)(=O)c1ccc(N(C)C2CC2)nc1-c1ccn2nc(C(F)(F)F)nc2n1 [Compound 176, N-cyclopropyl-5-(ethylsulfonyl)-N-methyl-6-(2-(trifluoromethyl)-[1,2,4]triazolo[1,5-a]pyrimidin-5-yl)pyridin-2-amine] |  | ≥ 70
24 | CCS(=O)(=O)c1cc(-c2ccc(OC(F)(F)C(F)F)cc2)cnc1-c1ccn2nc(C(F)(F)F)nc2n1 [Compound 104, 5-(3-(ethylsulfonyl)-5-(4-(1,1,2,2-tetrafluoroethoxy)phenyl)pyridin-2-yl)-2-(trifluoromethyl)-[1,2,4]triazolo[1,5-a]pyrimidine] |  | ≥ 70
